Some test systems named below: A549; CAKI-1; CCRF-CEM; COLO 205; HCC 2998; HL-60; HT-29; MCF7; NCI-H226; NCI-H460; OVCAR-3; RPMI-8226; SK-MEL-5; SW-620; U-251; UACC-257; OVCAR-4; A498.
Holding throughout (assay): NCI-60 cell line screen, 48 h

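How tested: cells in 96-well plates exposed to compound for 48 hours at five concentrations. GI50 is the concentration that inhibits growth by half.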 Activity calls are given as the source filed them. No stated cut-off is given here; in the data, active = GI50 up to about 1.1 µM and inactive = higher.

For `COc1ccc(/C=C/C(=O)CC(=O)/C=C/c2ccc(OC)cc2)cc1`, the GI50 was 80.4 µM (inactive) in the assay on A549; 62.4 µM (inactive) with CAKI-1; 20.9 µM (inactive) in the assay on CCRF-CEM; 69.5 µM (inactive) in the assay with COLO 205; > 100 µM (inactive) in the assay on HCC 2998; 25.6 µM (inactive) in the assay with HL-60. Besides, the GI50 is 23.1 µM (inactive) with HT-29; 64.9 µM (inactive) in the assay with MCF7; > 100 µM (inactive) in the assay on NCI-H226; 33 µM (inactive) with NCI-H460; 23.1 µM (inactive) in the assay with OVCAR-3; 38.1 µM (inactive) with RPMI-8226. For the same compound, the GI50 with SK-MEL-5 was 67.6 µM (inactive); in the assay with SW-620 it was 52.5 µM (inactive); in the assay on U-251, 41.3 µM (inactive); in the assay on UACC-257, > 100 µM (inactive).
`O=C1NC(=S)N/C1=C\c1ccc(Cl)cc1`: the GI50 was 93.1 µM (inactive) in the assay with A549; > 100 µM (inactive) in the assay with CAKI-1; 54.2 µM (inactive) in the assay with CCRF-CEM; 80.5 µM (inactive) with COLO 205; > 100 µM (inactive) in the assay with HCC 2998; > 100 µM (inactive) with HT-29. Moreover, the GI50 in the assay on MCF7 was > 100 µM (inactive); in the assay with NCI-H226, > 100 µM (inactive); with OVCAR-3, > 100 µM (inactive); with OVCAR-4, 39.2 µM (inactive); in the assay with RPMI-8226 it was 77.3 µM (inactive); in the assay with SK-MEL-5, 41.8 µM (inactive). The GI50 in the assay on SW-620 and in the assay on U-251 was > 100 µM (inactive) throughout.
`O=C1C=CC2CCC1C2` (stereo not drawn): the GI50 with A498 was 90.2 µM (inactive); in the assay on A549, 40.6 µM (inactive); in the assay on CAKI-1 it was 27.5 µM (inactive); with CCRF-CEM, 28.4 µM (inactive); with COLO 205 it was 33.7 µM (inactive); in the assay with HCC 2998, 30.1 µM (inactive). The GI50 was 19.2 µM (inactive) in the assay with HL-60; 32.3 µM (inactive) in the assay on HT-29; 31.1 µM (inactive) in the assay with MCF7; 39.4 µM (inactive) in the assay with NCI-H226; 30.6 µM (inactive) in the assay with NCI-H460; 43.1 µM (inactive) in the assay with OVCAR-3. For the same compound, the GI50 in the assay on RPMI-8226 is 34 µM (inactive); in the assay with SK-MEL-5, 28.6 µM (inactive); in the assay with SW-620, 32.1 µM (inactive); with U-251 it was 28.8 µM (inactive); with UACC-257, 46.8 µM (inactive).
For `NNc1nncc2[nH]nnc12`, the GI50 is > 100 µM (inactive) in the assay with A498; > 100 µM (inactive) with A549; > 100 µM (inactive) in the assay with CAKI-1; > 100 µM (inactive) with CCRF-CEM; > 100 µM (inactive) in the assay with COLO 205; 48.1 µM (inactive) in the assay with HL-60. For the same compound, the GI50 in the assay with HT-29, with MCF7, in the assay with NCI-H226, in the assay on NCI-H460, with OVCAR-3 and in the assay on RPMI-8226 was > 100 µM (inactive) throughout. For the same compound, the GI50 in the assay with SK-MEL-5 is > 10 µM (inactive); in the assay with SW-620 it was > 100 µM (inactive); with U-251, > 100 µM (inactive); in the assay on UACC-257, > 100 µM (inactive).
On to `O=[N+]([O-])C(Cl)C(Cl)C(Cl)=C(Cl)Cl` (stereo not drawn), for which the GI50 was > 77.3 µM (inactive) in the assay with A498; > 91.8 µM (inactive) with A549; 17.6 µM (inactive) in the assay with CAKI-1; 23.7 µM (inactive) with CCRF-CEM; 17.5 µM (inactive) in the assay on COLO 205; > 40.9 µM (inactive) with HCC 2998. The GI50 with HL-60 was 10.4 µM (inactive); in the assay with HT-29 it was 17.6 µM (inactive); in the assay on MCF7 it was 13.8 µM (inactive); with NCI-H226, > 100 µM (inactive); with NCI-H460 it was 49.1 µM (inactive); in the assay on OVCAR-3, 26 µM (inactive). Also, the GI50 in the assay on OVCAR-4 is 16.7 µM (inactive); with SK-MEL-5, 15 µM (inactive); with SW-620, 18 µM (inactive); with U-251 it was > 83.6 µM (inactive); with UACC-257, 22.1 µM (inactive).
Take `O=[N+]([O-])C(=C1Nc2ccccc2N1)/C(Cl)=C(/Cl)N1CCOCC1`: the GI50 with A498 is > 100 µM (inactive); in the assay with A549 it was > 100 µM (inactive); in the assay on CAKI-1, > 100 µM (inactive); in the assay on CCRF-CEM, 50.8 µM (inactive); in the assay with COLO 205, 80.9 µM (inactive); in the assay with HCC 2998, > 100 µM (inactive). For the same compound, the GI50 with HT-29 was > 100 µM (inactive); in the assay with MCF7, 45.8 µM (inactive); with NCI-H226 it was > 100 µM (inactive); in the assay on NCI-H460, > 100 µM (inactive); with OVCAR-3, 26.7 µM (inactive); in the assay on OVCAR-4 it was 25.4 µM (inactive). Moreover, the GI50 is 57.7 µM (inactive) in the assay with RPMI-8226, 30.5 µM (inactive) in the assay with SW-620, 61.9 µM (inactive) in the assay with U-251 and > 100 µM (inactive) in the assay on UACC-257.
For `COc1cc2c(cc1OC)C1c3ccccc3CCN1CCC2.[O-][Cl+3]([O-])([O-])O` (stereo not drawn), the GI50 was > 100 µM (inactive) with A549; > 100 µM (inactive) in the assay with CAKI-1; > 100 µM (inactive) in the assay with CCRF-CEM; > 100 µM (inactive) in the assay on COLO 205; > 100 µM (inactive) with HCC 2998; 68.5 µM (inactive) with HL-60. The GI50 in the assay with HT-29 is 69.7 µM (inactive); in the assay with MCF7, > 100 µM (inactive); in the assay on NCI-H226, > 100 µM (inactive); in the assay with OVCAR-3, > 100 µM (inactive); in the assay on RPMI-8226 it was 63.7 µM (inactive); with SK-MEL-5 it was > 100 µM (inactive). The GI50 in the assay on SW-620, in the assay with U-251 and with UACC-257 was > 100 µM (inactive) throughout.
As for `c1ccc2c(c1)sc1c3cnccc3ccc21`, the GI50 with A498 is > 100 µM (inactive); with A549, 33.7 µM (inactive); in the assay on CAKI-1, 43.3 µM (inactive); in the assay on COLO 205, 90.8 µM (inactive); in the assay with HCC 2998, > 100 µM (inactive); in the assay with HL-60, 40.6 µM (inactive). Also, the GI50 in the assay on HT-29 was 99.8 µM (inactive); with MCF7, 24.1 µM (inactive); in the assay with NCI-H226, 24.2 µM (inactive); with NCI-H460, 24.9 µM (inactive); in the assay with OVCAR-3, > 100 µM (inactive); in the assay on OVCAR-4 it was > 100 µM (inactive). Moreover, the GI50 is 0.0697 µM (active) in the assay on RPMI-8226; > 100 µM (inactive) in the assay with SK-MEL-5; 76.4 µM (inactive) in the assay with SW-620; > 100 µM (inactive) in the assay with U-251; 56.6 µM (inactive) in the assay on UACC-257.
For `COc1cc(OC)c2c(c1-c1ccc(C)cc1)CC(C)N(Cc1ccccc1)[C@H]2C` (stereo partly drawn), the GI50 in the assay with A498 is 87.7 µM (inactive); in the assay with A549, 44.2 µM (inactive); in the assay on CAKI-1 it was 63.8 µM (inactive); in the assay with CCRF-CEM it was 7.76 µM (inactive); with COLO 205, 32.3 µM (inactive); with HCC 2998 it was 31.1 µM (inactive). Also, the GI50 was 12.2 µM (inactive) in the assay with HL-60; 18.5 µM (inactive) in the assay with HT-29; 28.5 µM (inactive) with MCF7; 49.4 µM (inactive) in the assay with NCI-H226; 37.7 µM (inactive) in the assay with NCI-H460; 13.5 µM (inactive) in the assay on RPMI-8226. Also, the GI50 with SK-MEL-5 was 19.4 µM (inactive); in the assay on SW-620 it was 34.8 µM (inactive); in the assay on UACC-257, 25.2 µM (inactive).

(Values after ChEMBL document CHEMBL1201862, “PubChem BioAssay data set” (2004).)
